Counter-ions that a name gives are not always drawn. Like-named read-outs stand apart in the source and are kept apart here. One block for each compound: values may come before it.
Target: T1, protein farnesyltransferase (Rattus norvegicus, UniProt Q02293+Q04631)
T1 construct: The enzyme is purified according to Reiss, Y., et al., Cell, 62: 81-88 (1990), utilizing steps one through three; from tissue; host or cells: rat brain
Test: Inhibition of farnesyltransferase (scintillation proximity assay, rat brain enzyme, biotin-K Ras B fragment substrate)
Assay type: biochemical
Settings: for % inhibition of farnesyltransferase at 1 × 10^-6 M / inhibition at 1 µM: 1 × 10^-6 M (Table 2); for inhibition at 1 µM: read-out: % inhibition of farnesyltransferase at 1 × 10^-6 M; for % inhibition of farnesyltransferase at 1 × 10^-5 M: 1 × 10^-5 M (Table 1)
Method in brief: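 Enzyme from rat brain, partly purified (steps one to three), assayed by SPA kit using 0.1 mM final biotin-K Ras B peptide as prenyl acceptor rather than biotin-lamin. Activity given as percent inhibition.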

[1] = read-out: % inhibition at 0.1 μM (*), Table 6, * = 0.1 μM (footnote), title prints 0.1 mM

T1 sequence (Q02293 whole entry, one chain of several): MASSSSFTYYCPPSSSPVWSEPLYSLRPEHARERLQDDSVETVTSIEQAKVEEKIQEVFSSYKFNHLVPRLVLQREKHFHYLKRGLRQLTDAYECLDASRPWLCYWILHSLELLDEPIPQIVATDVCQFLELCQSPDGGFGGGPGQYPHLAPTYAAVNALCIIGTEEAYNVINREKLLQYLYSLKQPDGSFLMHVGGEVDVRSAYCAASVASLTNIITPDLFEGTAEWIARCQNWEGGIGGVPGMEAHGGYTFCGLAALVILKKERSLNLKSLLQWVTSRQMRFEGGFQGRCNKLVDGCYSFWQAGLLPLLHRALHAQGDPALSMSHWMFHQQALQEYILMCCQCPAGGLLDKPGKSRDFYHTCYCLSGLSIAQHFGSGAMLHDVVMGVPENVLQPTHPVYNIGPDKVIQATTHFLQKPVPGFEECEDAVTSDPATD

Compound: CSCC[C@H](NC(=O)c1ccc(SCCc2ccccc2)cc1-c1ccccc1C)C(=O)O [Example 498]
% inhibition of farnesyltransferase at 1 × 10^-6 M: 98%

Compound: CSCC[C@H](NC(=O)c1ccc(CC(CCC2CCCCC2)C(=O)OC(C)(C)C)cc1-c1ccccc1C)C(=O)O (stereo partly shown) [Example 1301, N-[4-(2-(2-cyclohexylethyl)t-butylpropion-3-yl)-2-(2-methylphenyl)benzoyl]methionine Lithium Salt]
inhibition at 0.1 µM [1]: 97%

Compound: CSCC[C@H](NC(=O)c1ccc(CNC(C)(C)Cc2ccccc2)cc1-c1ccccc1C)C(=O)O [Example 307]
inhibition at 1 µM: 82%

Compound: CCN(Cc1ccc(C(=O)N[C@@H](CCSC)C(=O)O)c(-c2ccccc2)c1)Cc1cc([N+](=O)[O-])ccc1O [Example 711]
% inhibition of farnesyltransferase at 1 × 10^-5 M: 46%

Compound: CSCC[C@H](NC(=O)c1ccc(COc2cccc3ccccc23)cc1-c1ccccc1C)C(=O)O [Example 574]
% inhibition of farnesyltransferase at 1 × 10^-7 M (1 × 10^-7 M (Table 3)): 81%

Compound: CSCC[C@H](NC(=O)c1ccc(NCC(CO)(Cc2ccccc2)Cc2ccccc2)cc1-c1ccccc1C)C(=O)O [Example 475]
% inhibition of farnesyltransferase at 1 × 10^-6 M: 21%

Compound: N-[4-(4-phenylcyclohexylidenyl)-2-(2-methylphenyl)benzoyl]methionine lithium salt [Example 789]
% inhibition of farnesyltransferase at 1 × 10^-6 M: 86%

Compound: CSCCC(CO)NCc1ccc(C(=O)N[C@@H](CCSC)C(=O)O)c(-c2ccccc2)c1 (stereo partly shown) [Example 633]
% inhibition of farnesyltransferase at 1 × 10^-6 M: 32%

Compound: COc1cccc(COCc2ccc(C(=O)N[C@@H](CCSC)C(=O)[O-])c(-c3ccccc3C)c2)c1.[Li+] [Example 932]
% inhibition of farnesyltransferase at 1 × 10^-8 M (1 × 10^-8 M (Table 4)): 60%

Compound: CCSC[C@H](CC1CCCCC1)OCc1ccc(C(=O)N[C@@H](CCSC)C(=O)O)c(-c2ccccc2C)c1 [Example 606]
% inhibition of farnesyltransferase at 1 × 10^-8 M (1 × 10^-8 M (Table 4)): 93%

Compound: CSCC[C@H](NC(=O)c1ccc(COCc2cnc(-c3ccccc3Cl)o2)cc1-c1ccccc1C)C(=O)[O-].[Li+] [Example 892]
% inhibition of farnesyltransferase at 1 × 10^-8 M (1 × 10^-8 M (Table 4)): 59%

Compound: CSCC[C@H](NC(=O)c1ccc(CCc2ccc(Oc3ccccc3)cc2)cc1-c1ccccc1C)C(=O)O [Example 462, N-[4-(2-(4-phenoxyphenyl)ethyl)-2-(2-methylphenyl)benzoyl]methionine lithium salt]
inhibition at 0.1 µM (read-out: % inhibition of farnesyltransferase at 1 × 10^-7 M, 1 × 10^-7 M (Table 3)): 91%

Compound: CSCC[C@H](NC(=O)c1ccc(COCc2ccc(-c3ccccc3F)o2)cc1-c1ccccc1C)C(=O)[O-].[Li+] [Example 437]
% inhibition of farnesyltransferase at 1 × 10^-7 M (1 × 10^-7 M (Table 3)): 89%

Compound: CSCC[C@H](NC(=O)c1ccc(CNc2cccc(CCC(=O)O)c2)cc1-c1ccccc1)C(=O)O [Example 685]
% inhibition of farnesyltransferase at 1 × 10^-5 M: 55%

Compound: CSCC[C@H](NC(=O)c1ccc(COCCCC2CCCCC2)cc1-c1ccccc1C)C(=O)O [Example 405]
% inhibition of farnesyltransferase at 1 × 10^-6 M: 98%

Compound: CSCC[C@H](NC(=O)c1ccc(CSc2ccc3ccccc3c2)cc1-c1ccccc1C)C(=O)O [Example 551]
% inhibition of farnesyltransferase at 1 × 10^-7 M (1 × 10^-7 M (Table 3)): 93%

Compound: CSCC[C@H](NC(=O)c1ccc(CN(C(C)C)C(C)(C)Cc2ccccc2)cc1-c1ccccc1C)C(=O)O [Example 317]
inhibition at 1 µM: 54%

Compound: CSCC[C@H](NC(=O)c1ccc(/C=C/CC(O)c2ccc3ccccc3c2)cc1-c1ccccc1C)C(=O)O (stereo partly shown) [Example 474, N-[4-(4-naphth-2-ylbut-4-ol-1-enyl)-2-(2-methylphenyl)benzoyl]methionine]
inhibition at 1 µM: 92%

Compound: COc1cccc(-c2ccc(COCc3ccc(C(=O)N[C@@H](CCSC)C(=O)[O-])c(-c4ccccc4C)c3)o2)c1.[Li+] [Example 442]
% inhibition of farnesyltransferase at 1 × 10^-7 M (1 × 10^-7 M (Table 3)): 88%

Compound: CSCC[C@H](NC(=O)c1ccc(CN(Cc2ccccc2)c2cccc(SC)c2)cc1-c1ccccc1C)C(=O)[O-].[Li+] [Example 851]
% inhibition of farnesyltransferase at 1 × 10^-8 M (1 × 10^-8 M (Table 4)): 82%

Compound: CSCC[C@H](NC(=O)c1ccc(CN(CCO)Cc2ccccc2)cc1-c1ccccc1)C(=O)O [Example 515]
% inhibition of farnesyltransferase at 1 × 10^-6 M: 72%

Compound: CSCC[C@H](NC(=O)c1ccc(CN(C(C)C)C2(Cc3ccccc3)CC2)cc1-c1ccccc1C)C(=O)O [Example 325]
inhibition at 1 µM: 99%

Compound: CCS(=O)(=O)C[C@H](CC1CCCCC1)NCc1ccc(C(=O)N[C@@H](CCS(C)(=O)=O)C(=O)O)c(-c2ccccc2C)c1 [Example 621]
% inhibition of farnesyltransferase at 1 × 10^-7 M (1 × 10^-7 M (Table 3)): 98%

Compound: CSCC[C@H](NC(=O)c1ccc(CNc2cccc(I)c2)cc1-c1ccccc1)C(=O)O [Example 677]
% inhibition of farnesyltransferase at 1 × 10^-6 M: 37%

Compound: Cc1ccccc1-c1cc(COCc2ccccc2)ccc1C(=O)N[C@@H](CCS(C)(=O)=O)C(=O)O [Example 576]
% inhibition of farnesyltransferase at 1 × 10^-6 M: 88%

Compound: Cc1ccccc1-c1cc(CN(C)C(C)(C)Cc2ccccc2)ccc1C(=O)N[C@@H](CCS(C)(=O)=O)C(=O)O [Example 313]
inhibition at 1 µM: 94%

Compound: CSCC[C@H](NC(=O)c1ccc(C=Cc2ccccc2Oc2ccccc2)cc1-c1ccccc1C)C(=O)O [Example 453, N-[4-(2-(2-phenoxyphenyl)ethen-1-yl)-2-(2-methylphenyl)benzoyl]methionine lithium salt]
inhibition at 1 µM: 90%

Compound: CSCC[C@H](NC(=O)c1ccc(COCc2cccc(C)c2)cc1-c1ccccc1C)C(=O)[O-].[Li+] [Example 578]
% inhibition of farnesyltransferase at 1 × 10^-7 M (1 × 10^-7 M (Table 3)): 90%

Compound: CSCC[C@H](NC(=O)c1ccc(NCC(CO)CC2CCCCC2)cc1-c1ccccc1C)C(=O)O (stereo partly shown) [Example 479]
% inhibition of farnesyltransferase at 1 × 10^-6 M: 95%

Compound: CSCC[C@H](NC(=O)c1ccc(COCCc2ccc3ccccc3c2)cc1-c1ccccc1C)C(=O)[O-].[Li+] [Example 593]
% inhibition of farnesyltransferase at 1 × 10^-7 M (1 × 10^-7 M (Table 3)): 86%

Compound: CSCC[C@H](NC(=O)c1ccc(CN[C@H](/C=C\CC(C)C)CC2CCCCC2)cc1-c1ccccc1)C(=O)O [Example 666]
% inhibition of farnesyltransferase at 1 × 10^-6 M: 82%

Compound: CSCC[C@H](NC(=O)c1ccc(CNCCc2c[nH]c3ccccc23)cc1-c1ccccc1C)C(=O)O [Example 519]
% inhibition of farnesyltransferase at 1 × 10^-7 M (1 × 10^-7 M (Table 3)): 89%

Compound: CC[C@H](CC1CCCCC1)NCc1ccc(C(=O)N[C@@H](CCSC)C(=O)O)c(-c2ccccc2C)c1 [Example 614]
% inhibition of farnesyltransferase at 1 × 10^-8 M (1 × 10^-8 M (Table 4)): 92%

Compound: CCCCN(C)N(CCC1CCCCC1)Cc1ccc(C(=O)N[C@@H](CCS(C)(=O)=O)C(=O)O)c(-c2ccccc2C)c1 [Example 300]
inhibition at 1 µM: 22%

Compound: CSCC[C@H](NC(=O)c1ccc(CSc2nc3ccccc3[nH]2)cc1-c1ccccc1C)C(=O)O [Example 732]
% inhibition of farnesyltransferase at 1 × 10^-7 M (1 × 10^-7 M (Table 3)): 84%

Compound: CSCC[C@H](NC(=O)c1ccc(COCCCCc2ccccc2)cc1-c1ccccc1C)C(=O)O [Example 601]
% inhibition of farnesyltransferase at 1 × 10^-7 M (1 × 10^-7 M (Table 3)): 92%

The next lines start with the values.

% inhibition of farnesyltransferase at 1 × 10^-5 M: > 50%
Compound: CSCC[C@H](NC(=O)c1ccc(NC(=O)[C@@H]2C[C@@H](O)CN2)cc1-c1ccccc1)C(=O)O [Example 952]

% inhibition of farnesyltransferase at 1 × 10^-7 M (1 × 10^-7 M (Table 3)): 72%
Compound: CSCC[C@H](NC(=O)c1ccc(CNc2ccc(N3CCOCC3)cc2)cc1-c1ccccc1C)C(=O)O [Example 863]

% inhibition of farnesyltransferase at 1 × 10^-5 M: 58%
Compound: CSCC[C@H](NC(=O)c1ccc(NC(=O)Cc2ccccc2[N+](=O)[O-])cc1-c1ccccc1)C(=O)O [Example 757]

% inhibition of farnesyltransferase at 1 × 10^-7 M (1 × 10^-7 M (Table 3)): 94%
Compound: CSCC[C@H](NC(=O)c1ccc(CSc2ccc(F)cc2)cc1-c1ccccc1C)C(=O)O [Example 740]

% inhibition of farnesyltransferase at 1 × 10^-8 M (1 × 10^-8 M (Table 4)): 95%
Compound: CSCC[C@H](NC(=O)c1ccc(CN(CCC2CCCCC2)Cc2cncs2)cc1-c1ccccc1C)C(=O)O [Example 986]

% inhibition of farnesyltransferase at 1 × 10^-7 M (1 × 10^-7 M (Table 3)): 71%
Compound: CCCCS(=O)(=O)N(Cc1ccc(C(=O)N[C@@H](CCSC)C(=O)O)c(-c2ccccc2C)c1)[C@H](CSCC)CC1CCCCC1 [Example 950]

inhibition at 0.1 µM [1]: 90%
Compound: COC1CC(COCC2CCCCC2)N(Cc2ccc(C(=O)NC(CCSC)C(=O)O)c(-c3ccccc3C)c2)C1 [Example 1123, N-[4-(2(S)-cyclohexylmethoxymethyl-4(R-methoxypyrrolidin-1-ylmethyl)-2-(2-methylphenyl)benzoyl]methionine]

inhibition at 0.01 µM (read-out: % inhibition at 0.01 μM (**), Table 6, ** = 0.01 μM (footnote), title prints 0.01 mM): 83%
Compound: CSCC[C@H](NC(=O)c1ccc(CN2CC[C@H]2COCC2CCCCC2)cc1-c1ccccc1C)C(=O)O [Example 1114, N-[4-(2(S)-cyclohexylmethoxymethylazetidin-1-ylmethyl)-2-(2-methylphenyl)benzoyl]methionine]

% inhibition of farnesyltransferase at 1 × 10^-6 M: 84%
Compound: CSCC[C@H](NC(=O)c1ccc(CSc2nc(O)cc(Cc3ccccc3)n2)cc1-c1ccccc1C)C(=O)O [Example 744]

% inhibition of farnesyltransferase at 1 × 10^-8 M (1 × 10^-8 M (Table 4)): 74%
Compound: CCCCS(=O)(=O)N(CCCc1ccccc1)Cc1ccc(C(=O)N[C@@H](CCSC)C(=O)O)c(-c2ccccc2C)c1 [Example 927]

% inhibition of farnesyltransferase at 1 × 10^-6 M: 92%
Compound: CSCC[C@H](NC(=O)c1ccc(CN(Cc2ccco2)C(C)C)cc1-c1ccccc1C)C(=O)O [Example 831]

% inhibition of farnesyltransferase at 1 × 10^-6 M: 35%
Compound: CSCC[C@H](NC(=O)c1ccc(CN(C(=O)OC(C)(C)C)C(CC2CCCCC2)CC2CCCCC2)cc1-c1ccccc1C)C(=O)O [Example 886]

inhibition at 0.01 µM (read-out: % inhibition of farnesyltransferase at 1 × 10^-8 M, 1 × 10^-8 M (Table 4)): 86%
Compound: CSCC[C@H](NC(=O)c1ccc(CON=C(Cc2ccccc2)Cc2ccccc2)cc1-c1ccccc1C)C(=O)O [Example 888, N-[4-N-(1,3-Diphenylpropan-2-yl)iminooxymethyl-2-(2-methylphenyl)benzoyl]-methionine lithium salt]

% inhibition of farnesyltransferase at 1 × 10^-7 M (1 × 10^-7 M (Table 3)): 56%
Compound: CSCC[C@H](NC(=O)c1ccc(NC(=O)CN)cc1-c1ccccc1)C(=O)O [Example 748]

% inhibition of farnesyltransferase at 1 × 10^-7 M (1 × 10^-7 M (Table 3)): 96%
Compound: CSCC[C@H](NC(=O)c1ccc(CSc2nnc[nH]2)cc1-c1ccccc1C)C(=O)O [Example 735]

% inhibition of farnesyltransferase at 1 × 10^-8 M (1 × 10^-8 M (Table 4)): 85%
Compound: CSCC[C@H](NC(=O)c1ccc(CN(Cc2ccccc2)c2ccc(C(F)(F)F)cc2)cc1-c1ccccc1C)C(=O)O [Example 853]

— US6221865A, “Inhibitors of protein isoprenyl transferases” (priority 1998, dated 2001)
